In patent US8536332B2, “Modulating signal transduction pathways with substituted pyridol [2,3-b] pyrazines” (Aeterna Zentaris GmbH, priority 2007, dated 2013):

How the values were obtained:
[1] = system: T1, Jnk1 + Jnk2; experiment: Cell-free kinase assay (ALPHA technology) Jnk1 + Jnk2; format: biochemical, human; conditions: 10 μM ATP
T1 construct: fused on or other part: GST tag or His tag (commercial recombinant fusion proteins from Proqinase or Upstate)
Protocol: (§1) The inhibitory effect of the compounds of the invention was tested on various human serine/threonine kinases, tyrosine kinases and lipid kinases in enzymatic assays. Recombinant human kinases, for example PI3Kalpha, -beta, -gamma, -delta, Erk2, p38alpha, p38gamma, Jnk1, Jnk2 and others were used, in some cases as full-length kinases, in some cases as truncated fragments—but at least consisting of the functional kinase domains. The commercial kinase proteins (Proqinase, Upstate) were used as recombinant fusion proteins with GST (glutathione S-transferase) tag or His tag. Depending on the substrate type, the different kinase reactions were quantified by suitable ALPHA™ beads (PerkinElmer).
(§2) The kinase assays for PI3K and Erk are described in detail and selected test results are cited below. […] Subsequently, the kinase reaction was stopped by adding the ALPHA bead mix (10 μg/ml, #6760603/PerkinElmer), preincubated with 1 nM GST:Grp1 fusion protein (Upstate) and […] (#C-39B6/Echelon) in 50 mM Hepes, 50 mM NaCl, 50 mM EDTA and 0.1% BSA, and left to stand overnight. • b) Erk2-ALPHA: The test substance, 0.625 ng of Erk2 (#14-173, Upstate), 10 μM ATP and 15 nM biotinylated MBP (myelin basic protein) substrate were incubated on a 384-well Optiplate (Perkin Elmer) in a volume of 15 μl for 1 h in 25 mM Tris, 10 mM MgCl2, 0.1% Tween-20, 100 μM NaVO4, 2 mM DTT at pH 7.5. The kinase reaction was stopped by adding 10 μl of the ALPHA bead mix (10 μg/ml, #6760617/PerkinElmer), pre-incubated with anti-phospho MBP antibody (320 pM, #05-429/Upstate), in 25 mM Tris, 200 mM NaCl, 100 mM EDTA and 0.3% BSA, and left to stand overnight.
(§3) The luminiscence was detected the next morning in a Fusion™ alpha instrument (Perkin Elmer).
(§4) The calculation of % inhibition values per substance concentration was done by means of the following formula from the raw data determined in the Fusion™ alpha:
(§5) The controls were determined 8 fold and the substance samples 2 fold. 0% control contained neither any ATP nor any substrate. The 100% control contained no test substance. The IC50 values were determined with GraphPadPrism.

[2] = biological target: p38alpha (Homo sapiens, UniProt Q16539); experiment: Cell-free kinase assay (ALPHA technology) p38alpha; format: biochemical; conditions: 10 μM ATP
Sequence of p38alpha (Q16539 whole entry): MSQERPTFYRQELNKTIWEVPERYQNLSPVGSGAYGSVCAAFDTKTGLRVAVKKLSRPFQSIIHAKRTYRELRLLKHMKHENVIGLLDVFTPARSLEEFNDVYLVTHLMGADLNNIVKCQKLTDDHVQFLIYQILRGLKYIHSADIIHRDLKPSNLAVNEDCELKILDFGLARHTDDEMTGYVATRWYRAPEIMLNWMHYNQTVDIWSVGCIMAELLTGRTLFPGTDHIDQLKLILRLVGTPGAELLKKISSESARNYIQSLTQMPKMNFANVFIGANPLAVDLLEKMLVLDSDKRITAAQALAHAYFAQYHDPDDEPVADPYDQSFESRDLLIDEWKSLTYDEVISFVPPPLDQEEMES
Protocol: as §1, §2, §3, §4, §5

[3] = biological target: T2, Erk2 (Mus musculus, UniProt P63085); experiment: Cell-free kinase assay Erk2-ALPHA; format: biochemical, human; conditions: 10 μM ATP
T2 construct: purchased Upstate #14-173
T2 sequence (P63085 whole entry): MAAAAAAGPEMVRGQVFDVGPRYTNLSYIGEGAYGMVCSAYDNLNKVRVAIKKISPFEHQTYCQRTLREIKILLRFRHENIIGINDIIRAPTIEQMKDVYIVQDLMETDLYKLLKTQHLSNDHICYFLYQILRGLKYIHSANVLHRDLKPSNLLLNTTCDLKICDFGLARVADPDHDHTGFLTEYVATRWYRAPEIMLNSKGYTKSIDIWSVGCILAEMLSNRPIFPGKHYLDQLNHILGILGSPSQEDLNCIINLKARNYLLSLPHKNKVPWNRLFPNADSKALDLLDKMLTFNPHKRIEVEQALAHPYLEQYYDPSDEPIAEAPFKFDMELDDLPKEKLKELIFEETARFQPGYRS
Protocol: as §1, §2, §3, §4, §5

[4] = system: MDA-MB468; experiment: XTT assay, anti-proliferative activity, MDA-MB468; format: cell-based; conditions: Homo sapiens, MDA-MB-468; 45 h incubation
Protocol: (§6) The principle of this test is based on the intracellular reduction of the tetrazolium dye XTT (sodium 3′-[1-(phenylaminocarbonyl)-3,4-tetrazolium]bis(4-methoxy-6-nitro)benzenesulphonic acid, Sigma) to a formazan dye by mitochondrial dehydrogenases. The dye is formed only by metabolically active cells. Its photometrically measurable intensity is a quantitative indicator for the presence of living cells. The reduction in the dye formation as a result of incubation of the cells with substances serves as a parameter for the anti-proliferative activity.
(§7) The tumour cell lines (ATCC) were seeded in 96-well microtitre plates in a defined cell count (5000 cells/well for Hct116; 10000 cells/well for MDA MB468), and incubated overnight at 37° C., 5% CO2 and 95% air humidity. The test substances were made up as stock solutions (10 mM) in DMSO. […] The cell plates were then incubated for 45 h at 37° C., 5% CO2 and 95% air humidity.
(§8) For the detection reaction, the XTT substrate was mixed with PMS (N-methyldibenzopyrazine methylsulphate, Sigma) and added to the cells, to result in a final concentration of 325 μg of XTT/ml and 2.5 μg PMS/ml. The mixture was then incubated for 3 h at 37° C., 95% air humidity. Subsequently the formazan salt formed by cellular dehydrogenases was quantified at an absorption of 490 nm.
(§9) The evaluation of the % inhibition values was done by means of the following formula from the values for the optical densities measured in each case at 490 nm:
(§10) The controls were determined 8 fold, the substance samples 2 fold. 0% control contained no cells and the 100% control contained no test substance. The EC50 values were determined with GraphPadPrism.

[5] = system: Hct116; experiment: XTT assay, anti-proliferative activity, Hct116; format: cell-based; conditions: Homo sapiens, HCT-116; 45 h incubation
Protocol: as §6, §7, §8, §9, §10

SMILES | melting point [°C] | IC50 [1] [µM] | IC50 [2] [µM] | IC50 [3] [µM] | EC50 [4] [µM] | EC50 [5] [µM]
COc1cc(-c2ccc3ncc(NC(=O)NC4CCN(C(=O)C(F)(F)F)CC4)nc3n2)ccc1O [Compound 30, 1-[6-(4-Hydroxy-3-methoxy-phenyl)-pyrido[2,3-b]pyrazin-3-yl]-3-[1-(2,2,2-trifluoro-acetyl)-piperidin-4-yl]-urea] | 236 to 239 | < 31.6 | < 10 | < 10 | – | –
CCNC(=S)Nc1ccc2ncc(Nc3ccc(OC)c(O)c3)nc2n1 [Compound 147, 1-Ethyl-3-[3-(3-hydroxy-4-methoxy-phenylamino)-pyrido[2,3-b]pyrazin-6-yl]-thiourea] | 272 | > 31.6 | > 100 | > 100 | < 5 | < 5
COc1cc(-c2ccc3ncc(NC(=O)Nc4cccs4)nc3n2)ccc1O [Compound 614, 1-[6-(4-Hydroxy-3-methoxy-phenyl)-pyrido[2,3-b]pyrazin-3-yl]-3-thiophen-2-yl-urea] | 216 to 219 | < 31.6 | < 10 | < 31.6 | < 5 | < 5
CC(C)(C)NC(=O)Nc1cnc2ccc(-c3cc(Cl)c(O)c(Cl)c3)nc2n1 [Compound 553, 1-tert-Butyl-3-[6-(3,5-dichloro-4-hydroxy-phenyl)-pyrido[2,3-b]pyrazin-3-yl]-urea] | 251 to 253 | < 100 | > 100 | > 100 | < 5 | < 5
COc1cc(-c2ccc3ncc(NC(=O)NCCCl)nc3n2)ccc1O [Compound 173, 1-(2-Chloro-ethyl)-3-[6-(4-hydroxy-3-methoxy-phenyl)-pyrido[2,3-b]pyrazin-3-yl]-urea] | 215 to 218 | < 31.6 | < 50 | < 50 | < 1 | < 1
O=C(Nc1cnc2ccc(-c3cc(Cl)c(O)c(Cl)c3)nc2n1)NC1CCCC1 [Compound 563, 1-Cyclopentyl-3-[6-(3,5-dichloro-4-hydroxy-phenyl)-pyrido[2,3-b]pyrazin-3-yl]-urea] | 262 to 264 | – | – | > 100 | < 1 | < 1
CCNC(=S)Nc1ccc2ncc(Nc3cc(OC)c(OC)c(OC)c3)nc2n1 [Compound 160, 1-Ethyl-3-[3-(3,4,5-trimethoxy-phenylamino)-pyrido[2,3-b]pyrazin-6-yl]-thiourea] | 268 | > 100 | < 50 | < 31.6 | < 1 | < 1
COc1cc(-c2ccc3ncc(NC(=O)Nc4ccncc4)nc3n2)ccc1O [Compound 176, 1-[6-(4-Hydroxy-3-methoxy-phenyl)-pyrido[2,3-b]pyrazin-3-yl]-3-pyridin-4-yl-urea] | 234 to 237 | < 50 | < 50 | > 31.6 | < 1 | < 1
CNC(=O)Nc1cnc2ccc(-c3ccc(OC)c(OC)c3)nc2n1 [Compound 566, 1-[6-(3,4-Dimethoxy-phenyl)-pyrido[2,3-b]pyrazin-3-yl]-3-methyl-urea] | 253 to 255 | > 100 | > 31.6 | > 100 | < 5 | < 5
COc1cc(Nc2cnc3ccc(NC(=S)NC4CCCC4)nc3n2)cc(OC)c1OC [Compound 509, 1-Cyclopentyl-3-[3-(3,4,5-trimethoxy-phenylamino)-pyrido[2,3-b]pyrazin-6-yl]-thiourea] | 246 | > 100 | > 100 | > 100 | < 5 | < 5
COc1cc(-c2ccc3ncc(NC(=O)NC4CCCC4)nc3n2)ccc1O [Compound 20, 1-Cyclopentyl-3-[6-(4-hydroxy-3-methoxy-phenyl)-pyrido[2,3-b]pyrazin-3-yl]-urea] | 222 to 225 | > 100 | > 100 | > 100 | – | –
